# Measured values published in article PMC4980415 (Psychopharmacology, 2016).
# Structures can show the parent of a compound that is named as a salt.
# System: conditioned avoidance responding in male Wistar rats
# Test: Conditioned avoidance response (CAR)
# Type: in vivo, rat
# Experimental: The drug was administered, per os (po), by gavage to rats in a volume of 2 ml/kg body weight. Oral dosing solutions were prepared fresh daily. […] The pH of the dosing solution was adjusted to ~pH 5.5 by dropwise addition of 0.1 N NaOH in saline and volume adjusted by addition of saline in preparation for intraperitoneal (ip) dosing. […] Control treatments were always the vehicle solutions of the corresponding drugs.
# Avoidance behavior, escape behavior, escape failures, and inter-trial crosses were recorded, as described here: (1) avoidance (response to CS within 10 s); (2) escape (response to CS + UCS); and (3) escape failure (if the rat was unable to respond to the shock by moving into the opposite compartment within 50 s, the trial was terminated). The inter-trial interval (end of trial to start of new trial) varied randomly between 20 and 40 s. Rats were trained for five consecutive days and adapted to the shuttle box 5 min before each training session. Training sessions consisted of about 20 trials, randomly distributed over 15 min. Only rats that performed at least 90 % avoidance on the last day of training were included in the experiments. All subsequent test sessions were preceded by a pre-test to verify continued performance in the paradigm. Pre-tests and test sessions consisted of approximately ten trials, each randomly distributed over a 7.5-min period. […] Experimental days were always separated by at least two non-experimental days. Experimental tests were separated by at least 2 days to insure drug washout.
# Results from the conditioned avoidance responding (CAR) protocol were analyzed using non-parametric procedures.
smiles,measurement,setting,value
"CN1C(=O)c2c(nn(Cc3ccc(-c4cccc(F)n4)cc3)c2Nc2ccccc2)N2C1=N[C@@H]1CCC[C@@H]12 [ITI-214, (6aR,9aS)-2-(4-(6-fluoropyridin-2-yl)benzyl)-5-methyl-3-(phenylamino)-5,6a,7,8,9,9a-hexahydrocyclopenta-[4,5]imidazo[1,2-a]pyrazolo[4,3-e]pyrimidin-4-(2H)-one phosphate salt]",effect on percent avoidances,1 mg/kg po alone,no significant effect
same,effect on number of escape failures,CAR paradigm,Neither risperidone nor ITI-214 had significant effects
same,effect on avoidance behavior of rats given risperidone,ITI-214 1 mg/kg po with risperidone 0.8 mg/kg i.p.,did not affect avoidance behavior
